Test [1] addresses T1, McinOBP4-Wt (Macrocentrus cingulum, UniProt A0A1S6PU99). The experiment in a line: Competitive binding assay with 1-NPN as fluorescent reporter, McinOBP4-Wt. Here is the method: (§1) One cm light path fluorimeter quartz cuvette was used on a FluoroMax-4 (Horiba Scientific, USA) spectrophotometer at room temperature for fluorescence spectra recording and excitation wavelength of 337 nm was chosen and 300–500 nm for the emission with a 5 nm slit width. Spectra were recorded with 2 μM McinOBP4 in 50 mM Tris-HCl of different pH value, while ligands were added as 1 mM methanol solutions.
The probe was excited at 337 nm and emission spectra were recorded between 300 and 500 nm.
(§2) It was assumed that McinOBP4 was 100% active and the protein-ligand binding was 1:1 ratio at saturation. The obtained data were processed with Graphpad Prism software (Graphpad Software, Inc.) and using a software package SPSS Version 16 (http://www.spss.com). The maximum intensity values of emission were plotted against the 1-NPN concentration for the KD determination, and the values of intensity were used for the evaluation the bound ligands. The curve was linearized using Scatchard Plots to verify the confidence of KD.

The next test deals with T2, McinOBP4-M1 (Macrocentrus cingulum, UniProt A0A1S6PU99).
T2 sequence (A0A1S6PU99 23-134): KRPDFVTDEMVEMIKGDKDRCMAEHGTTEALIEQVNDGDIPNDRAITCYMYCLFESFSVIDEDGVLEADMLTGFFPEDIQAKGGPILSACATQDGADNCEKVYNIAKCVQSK
The experiment in a line: Fluorescence binding of 1-NPN to C-terminal truncated mutant McinOBP4-M1. The protocol: (§3) The C-terminal tail truncated form of the McinOBP4 was obtained by removing the last 8 amino acids and inserting a stop codon after Leu112. The McinOBP4-Wt/pGEM-T Easy construct was used as a template. A pair of primer was designed manually and as listed sense primer 5′- […] -3′ (underlined with BamHI) and antisense primer, 5′- […] -3′ (underlined with HindIII) where 113th position residues used as a stop codon. The mutant M2 (Met119) was prepared along with the pair of primer as sense primer 5′- […] -3′ (under lined with BamHI), and antisense primere 5′- […] -3′ (under lined with HindIII). […]
(§4) One cm light path fluorimeter quartz cuvette was used on a FluoroMax-4 (Horiba Scientific, USA) spectrophotometer at room temperature for fluorescence spectra recording and excitation wavelength of 337 nm was chosen and 300–500 nm for the emission with a 5 nm slit width. Spectra were recorded with 2 μM McinOBP4 in 50 mM Tris-HCl of different pH value, while ligands were added as 1 mM methanol solutions. […]
(§5) It was assumed that McinOBP4 was 100% active and the protein-ligand binding was 1:1 ratio at saturation. […] IC50 for other corn odorants were calculated using with Microsoft excel 2010, and the equation, KD = [IC50]/[1+(1–NPN)/K1−NPN] was used for the KD values calculation. […]

Test [2] concerns the target T1, McinOBP4-Wt. The experiment in a line: Fluorescence binding of 1-NPN to McinOBP4-Wt. Here is the method:
as §1
To measure the affinity of the fluorescence ligand N-phenyl-1-naphthylamine (1-NPN) to McinOBP4-wt and mutants, a 2 μM solution of the protein in 50 mM Tris-HCl, pH 7.4, was titrated with aliquots of 1 mM ligand in high-performance liquid chromatography (HPLC) purity grade methanol to final concentrations of 2–20 μM. The probe was excited at 337 nm and emission spectra were recorded between 300 and 500 nm. While the other competitor were measured in competitive binding assays, where 1-NPN using as the fluorescent reporter at 2 μM concentration and each competitor (odorants) over concentration ranges 2–14 μM, depending on the different odorants.
as §2, with “KD. IC50 for other corn odorants were calculated using with Microsoft excel 2010, and the equation, KD = [IC50]/[1+(1–NPN)/K1−NPN] was used for the KD values calculation. In this equation [IC50] stands for the ligand concentration where the ligand quenching the fluorescence intensity of 1-NPN to 50%, [1-NPN] and K1−NPN mean free 1-NPN concentration and McinOBP4/1-NPN complex KD values, respectively (Campanacci et al., [2001]; Ban et al., [2002]).” for “KD.”

Test [3] concerns the target T3, McinOBP4-M2 (Macrocentrus cingulum, UniProt A0A1S6PU99, M141L).
T3 sequence (A0A1S6PU99 23-142 M141L): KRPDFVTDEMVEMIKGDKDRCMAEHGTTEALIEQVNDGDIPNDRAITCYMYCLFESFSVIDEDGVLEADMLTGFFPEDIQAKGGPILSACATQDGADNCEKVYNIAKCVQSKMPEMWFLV
Description: Fluorescence binding of 1-NPN to mutant McinOBP4-M2 (Met119 replaced by Leu). The following applies: McinOBP4-M2, pH 7.4; read-out: Dissociation constant (KD) of 1-NPN. The protocol:
as §3, §4, §5

The target in test [4] is T3, McinOBP4-M2. The experiment in a line: Competitive binding assay with 1-NPN as fluorescent reporter, McinOBP4-M2. The note with it: compared to wild type and M1.
The mark [5] stands for this setting: recombinant McinOBP4-Wt, pH = 7.4, calculated from IC50, read-out: KD.
Where [6] appears, read: recombinant McinOBP4-Wt, pH = 7.4, displacement of 1-NPN, read-out: IC50.
Where [7] appears, read: McinOBP4-Wt, pH 7.4, read-out: KD.

In general, Kd refers to a measure of binding affinity in units of concentration. The IC50 is the concentration at which inhibition is half-maximal.

“Also recorded” adds a separate entry of the source. Where two headings read alike, the source gives them in different places.

T1 sequence (A0A1S6PU99 entry or part of it): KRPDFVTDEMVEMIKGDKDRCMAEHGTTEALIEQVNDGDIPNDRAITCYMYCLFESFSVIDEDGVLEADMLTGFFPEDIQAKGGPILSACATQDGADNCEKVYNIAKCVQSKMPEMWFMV

`C=C1CC/C=C(\C)CC[C@@H]2[C@@H]1CC2(C)C` (relative stereo) [Trans Caryophelle]: the Kd on McinOBP4-Wt [1] (setting [5]) is 19.1 µM. The IC50 at McinOBP4-Wt [1] (setting [6]) turned out to be 24.5 µM.

Regarding `c1ccc(Nc2cccc3ccccc23)cc1` [1-NPN, N-phenyl-1-naphthylamine], the “Affinity of 1-NPN in basic condition” value at McinOBP4-M1 (McinOBP4-M1, basic condition) is recorded as “increase in basic condition; also recorded: increase in affinity”; on McinOBP4-Wt [2] (basic condition), “increase in basic condition; also recorded: increase in affinity”. Besides, the Kd at McinOBP4-M1 (McinOBP4-M1, pH 7.4, read-out: Dissociation constant (KD) of 1-NPN) was 6.99 ± 0.59 µM; at McinOBP4-Wt [2] (pH 7.4, read-out: Dissociation constant (KD) of 1-NPN), 5.69 ± 0.83 µM; at McinOBP4-M2 [3], 8.85 ± 0.63 µM. Moreover, at McinOBP4-Wt [2] (acidic condition (pH 4.4)), the “Affinity of 1-NPN in acidic condition” value was “did not observe significant loss of binding activity”.

For the compound `C=CC(O)CC` (centres unmarked) [1-Penten-3-ol], on McinOBP4-Wt [1] (setting [5]), the Kd was 19.8 µM. Further, on McinOBP4-Wt [1] (setting [6]), the IC50 stood at 25.4 µM.

Take `CCCCC(C)CC(C)C` (centres unmarked) [2,4 Dimethyl Octane]: at McinOBP4-Wt [1] (setting [5]), the Kd is 36.6 µM. Further, the IC50 on McinOBP4-Wt [1] (setting [6]) stood at 47 µM.

For the compound `CCCCCc1ccco1` [2-Pentylfuran], the Kd at McinOBP4-Wt [1] (setting [5]) was 15.7 µM. Besides, the IC50 on McinOBP4-Wt [1] (setting [6]) is 20.1 µM.

At McinOBP4-Wt [1], `CC/C=C\CCO` [Cis-3-Hexen-1-ol] came in with an IC50 of 19.9 µM and a Kd of 15.5 µM.

On to `C=C/C(C)=C/C/C=C(\C)CCC=C(C)C` [Farnsene], for which, at McinOBP4-Wt [1] (setting [5]), the Kd is 21.3 µM. Also, the IC50 at McinOBP4-Wt [1] (setting [6]) is 27.4 µM.

As to `CCCCCCC=O` [Heptanal], at McinOBP4-Wt [1] (setting [5]), the Kd is 13 µM. Further, the IC50 at McinOBP4-Wt [1] (setting [6]) was found to be 16.8 µM.

For the compound `C=C(C)[C@H]1CC=C(C)CC1` [Limonene], the “Binding affinity to McinOBP4-M2 compared to wild type and first mutant” value on McinOBP4-M2 [4] is listed as “lower binding affinities; also recorded: much weaker”. For the same compound, the values for the Kd on McinOBP4-Wt [1] (setting [7]) and on McinOBP4-Wt [1] (setting [5]) were 4.12 ± 0.7 µM and 4.12 µM, respectively. The IC50 on McinOBP4-Wt [1] (setting [6]) stood at 5.29 µM.

As to `C=CC(C)(O)CCC=C(C)C` (centres unmarked) [Linalool], at McinOBP4-M2 [4], the “Binding affinity to McinOBP4-M2 compared to wild type and first mutant” value is on record as “lower binding affinities; also recorded: much weaker”. Further, at McinOBP4-Wt [1], the IC50 was determined as 12.3 µM and the affinity, expressed as Kd, was 9.61 ± 0.23 µM.

`C=CC(=C)CCC=C(C)C` [Myrcene]: the Kd on McinOBP4-Wt [1] (setting [5]) is 17.9 µM. Besides, the IC50 on McinOBP4-Wt [1] (setting [6]) was 23 µM.

Turning to `CCCCCCCCC=O` [Nonanal], the Kd at McinOBP4-Wt [1] (setting [5]) was 12.5 µM. The IC50 at McinOBP4-Wt [1] (setting [6]) amounted to 16.1 µM.

Consider `CCC/C=C/C=O` [Trans-2-Hexen-1-al], for which, at McinOBP4-Wt [1], the half-inhibitory concentration (IC50) was 16.4 µM and binding was put at a Kd of 12.8 µM.

On to `CCC/C=C/CO` [Trans-2-Hexen-1-ol], for which, on McinOBP4-Wt [1], the IC50 was found to be 19.8 µM and the equilibrium dissociation constant (Kd) stood at 15.4 µM.

As to `CCCCCC/C=C/C=O` [Trans-2-Nonenal], the Kd at McinOBP4-Wt [1] (setting [5]) is 12.8 µM. The IC50 at McinOBP4-Wt [1] (setting [6]) was 16.5 µM.

For the compound `CCCCC/C=C/C=O` [Trans-2-Octenal], the “Binding affinity to McinOBP4-M2 compared to wild type and first mutant” value on McinOBP4-M2 [4] (listed as trans-2-octanal) is given as “lower binding affinities; also recorded: much weaker”. The figures for the Kd on McinOBP4-Wt [1] (setting [7]) and on McinOBP4-Wt [1] (setting [5]) were 11.8 ± 0.57 µM and 11.9 µM, respectively. Besides, the half-maximal inhibitory concentration (IC50) at McinOBP4-Wt [1] (setting [6]) turned out to be 15.3 µM.

Take `CC/C=C/CCOC(C)=O` [Trans-3-Hexen-1-ol-Acetate]: the “Binding affinity to McinOBP4-M2 compared to wild type and first mutant” value at McinOBP4-M2 [4] was “lower binding affinities; also recorded: much weaker”. Besides, the Kd on McinOBP4-Wt [1] (setting [7]) was 6.99 ± 1.23 µM; on McinOBP4-Wt [1] (setting [5]), 6.99 µM. The IC50 on McinOBP4-Wt [1] (setting [6]) came out at 8.98 µM.

Take `CC(=O)/C=C/C1C(C)=CCCC1(C)C` (stereo not drawn) [α-Ionone]: on McinOBP4-Wt [1], the IC50 came out at 24.1 µM and the Kd turned out to be 18.7 µM.

At McinOBP4-Wt [1], `CC1=CCC2CC1C2(C)C` (stereo not drawn) [α-Pinene] registered an IC50 of 34.2 µM and a Kd of 26.6 µM.

As to `CC(=O)/C=C/C1=C(C)CCCC1(C)C` [β-Ionone], the “Binding affinity to McinOBP4-M2 compared to wild type and first mutant” value at McinOBP4-M2 [4] is “lower binding affinities; also recorded: much weaker”. Moreover, on McinOBP4-Wt [1], the IC50 amounted to 15.1 µM and the Kd is 11.8 µM.

On McinOBP4-Wt [1], `C=C1CCC2CC1C2(C)C` (stereo not drawn) [β-Pinene] showed a concentration for half-maximal inhibition (IC50) of 18.8 µM and a Kd of 14.7 µM.

For the compound Hexenal, the Kd at McinOBP4-Wt [1] (setting [5]) was 26.9 µM. The IC50 at McinOBP4-Wt [1] (setting [6]) came to 34.6 µM.

Values taken from article PMC5297413, “C-terminus Methionene Specifically Involved in Binding Corn Odorants to Odorant Binding Protein4 in Macrocentrus cingulum” (Frontiers in Physiology, 2017).
